Like-named read-outs stand apart in the source and are kept apart here. Where no end group is shown, it is not given here.
Tests used:
Type in all cases: cell-based
[1] = target: T1, PfCRT^Dd2 (Plasmodium falciparum, UniProt Q9N623, A220S/I356T/K76T/M74I/N326S/N75E/Q271E/R371I); experiment: [3H]CQ uptake into Xenopus oocytes, cis-inhibition by unlabelled solute; settings: read-out: PfCRT-mediated [3H]CQ transport, cis-inhibition (% PfCRTDd2 control)
Outline: (§1)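 Assay buffer ND96 (10 mM MES, 10 mM Tris-base) held at pH 5.5 to mimic vacuole lumen; uptake measured inward from this acidic medium over 1.5 h at 27.5 °C.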

[2] = target: T2, PfCRT^Ecu1110 (Plasmodium falciparum, UniProt Q9N623, A220S/I356L/K76T/N326D); experiment: as above
T2 sequence (Q9N623 whole entry A220S/I356L/K76T/N326D): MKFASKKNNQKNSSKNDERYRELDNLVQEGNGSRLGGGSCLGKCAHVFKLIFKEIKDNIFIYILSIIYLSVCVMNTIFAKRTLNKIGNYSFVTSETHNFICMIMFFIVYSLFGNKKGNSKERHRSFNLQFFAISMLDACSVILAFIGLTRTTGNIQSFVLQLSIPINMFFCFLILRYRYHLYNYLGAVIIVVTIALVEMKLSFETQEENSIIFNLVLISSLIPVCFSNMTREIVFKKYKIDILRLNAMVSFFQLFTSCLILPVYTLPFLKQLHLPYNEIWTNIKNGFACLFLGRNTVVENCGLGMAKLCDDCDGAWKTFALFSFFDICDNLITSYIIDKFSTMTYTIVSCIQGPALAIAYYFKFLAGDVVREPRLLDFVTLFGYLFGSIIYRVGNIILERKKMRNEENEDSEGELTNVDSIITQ
Outline: as §1

[3] = target: PfCRT^3D7 (Plasmodium falciparum, UniProt Q8IBZ9); experiment: cell-based; settings: for [3H]CQ transport, PfCRT3D7 (% PfCRTDd2 control): 45 mM VF-6 injected, 96 mM Na+ injection buffer; for activity at 2000 µM: read-out: [3H]CQ transport, PfCRT3D7, trans-stimulation, solute 2 mM; for [3H]CQ transport, PfCRT3D7 (% PfCRT3D7 control): solute 45 mM injected (estimated intracellular)
Sequence of PfCRT^3D7 (Q8IBZ9 59-398): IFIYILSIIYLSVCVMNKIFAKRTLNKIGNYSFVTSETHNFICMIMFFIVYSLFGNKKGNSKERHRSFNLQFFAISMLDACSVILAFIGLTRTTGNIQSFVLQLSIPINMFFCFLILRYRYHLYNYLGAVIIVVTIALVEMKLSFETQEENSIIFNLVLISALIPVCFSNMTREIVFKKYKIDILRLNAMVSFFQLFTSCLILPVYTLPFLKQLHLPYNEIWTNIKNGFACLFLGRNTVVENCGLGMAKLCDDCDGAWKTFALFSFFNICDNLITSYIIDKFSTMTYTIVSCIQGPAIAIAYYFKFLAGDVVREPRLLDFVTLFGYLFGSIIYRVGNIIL
Outline: (§2)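 Transport measured in Xenopus oocytes expressing the transporters, 1.5 h at 27.5 °C in ND96 pH 5.5 unless noted. For trans-stimulation, VF-6 injected in 25 nL ND96 at pH 5.0–7.0 or Na^+-free (choline) buffer; intracellular levels based on ~400 nL oocyte volume. Ten oocytes per treatment, ≥4 experiments.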

[4] = target: T1, PfCRT^Dd2; experiment: cell-based; settings: […]; for activity at 2000 µM: pH 5.5, read-out: [3H]CQ transport, PfCRTDd2, trans-stimulation, solute 2 mM
Outline: as §2

[5] = target: T2, PfCRT^Ecu1110; experiment: cell-based; settings: […]; for activity at 45000 µM: read-out: [3H]CQ transport, PfCRTEcu1110 (% PfCRTDd2 control), 45 mM VF-6 injected, 0 mM Na+ injection buffer; for activity at 2000 µM: read-out: [3H]CQ transport, PfCRTEcu1110, trans-stimulation, solute 2 mM
Outline: as §2

[6] = target: T3, PfNT1 (Plasmodium falciparum, UniProt Q8IDM6); experiment: cell-based; settings: for activity at 2000 µM: read-out: [3H]CQ transport, PfNT1, trans-stimulation, solute 2 mM
T3 construct: expressed in transfected cells; host or cells: Xenopus laevis oocytes (stage V-VI), cRNA-injected
T3 sequence (Q8IDM6 whole entry): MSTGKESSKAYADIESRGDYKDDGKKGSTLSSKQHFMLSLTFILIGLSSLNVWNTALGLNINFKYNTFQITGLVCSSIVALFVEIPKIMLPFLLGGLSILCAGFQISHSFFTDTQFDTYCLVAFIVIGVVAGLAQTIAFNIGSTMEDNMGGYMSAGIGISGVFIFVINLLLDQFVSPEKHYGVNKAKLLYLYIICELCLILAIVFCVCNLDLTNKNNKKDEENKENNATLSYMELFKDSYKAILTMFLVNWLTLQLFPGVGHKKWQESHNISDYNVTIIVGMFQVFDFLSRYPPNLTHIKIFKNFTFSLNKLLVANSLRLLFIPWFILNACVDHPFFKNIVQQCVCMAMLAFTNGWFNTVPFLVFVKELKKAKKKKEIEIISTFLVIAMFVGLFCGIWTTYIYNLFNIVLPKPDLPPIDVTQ
Outline: as §2

[7] = read-out: PfCRT-mediated [3H]CQ transport, cis-inhibition (% PfCRTEcu1110 control)
[8] = read-out: [3H]CQ transport (% PfCRTEcu1110 control), cis-inhibition, PfCRTEcu1110, SEM

T1 sequence (Q9N623 whole entry A220S/I356T/K76T/M74I/N326S/N75E/Q271E/R371I): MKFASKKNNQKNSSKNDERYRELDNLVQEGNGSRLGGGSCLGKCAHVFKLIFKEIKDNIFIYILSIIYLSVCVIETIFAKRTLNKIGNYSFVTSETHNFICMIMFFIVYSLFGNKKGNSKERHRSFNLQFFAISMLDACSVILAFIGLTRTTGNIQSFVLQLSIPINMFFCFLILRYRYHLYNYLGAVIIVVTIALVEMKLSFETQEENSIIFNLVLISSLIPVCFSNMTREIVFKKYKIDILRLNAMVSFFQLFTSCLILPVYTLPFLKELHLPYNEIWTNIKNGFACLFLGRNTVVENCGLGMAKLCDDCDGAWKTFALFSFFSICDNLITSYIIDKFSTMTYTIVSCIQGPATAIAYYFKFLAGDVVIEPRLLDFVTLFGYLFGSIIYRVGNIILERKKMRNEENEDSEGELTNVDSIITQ

Q: Which results are given for VDPVNF [VF-6]?
A: inhibition at 500 µM [1]: 30 ± 1.1%; inhibition at 1000 µM [1]: 21 ± 0.8%; inhibition at 2000 µM [1]: 8.1 ± 0.2%; inhibition at 500 µM [2, 7]: 50 ± 2.4%; inhibition at 1000 µM [2, 7]: 39 ± 4.1%; inhibition at 2000 µM [2, 7]: 26 ± 2.1%; inhibition at 500 µM [2, 8]: 16 ± 0.3%; inhibition at 1000 µM [2, 8]: 12 ± 0.2%; inhibition at 2000 µM [2, 8]: 8 ± 0.04%; [3H]CQ transport, PfCRT3D7 (% PfCRTDd2 control) ([3]; Experiment 1): 22.53 % PfCRTDd2 control; [3H]CQ transport, PfCRT3D7 (% PfCRTDd2 control) ([3]; Experiment 2): 23.78 % PfCRTDd2 control; [3H]CQ transport, PfCRT3D7 (% PfCRTDd2 control) ([3]; Experiment 3): 24.68 % PfCRTDd2 control; [3H]CQ transport, PfCRT3D7 (% PfCRTDd2 control) ([3]; Experiment 4): 25.32 % PfCRTDd2 control; [3H]CQ transport, PfCRT3D7 (% PfCRTDd2 control) ([3]; Experiment 5): 26.32 % PfCRTDd2 control; activity at 5000 µM ([3]; […], read-out: PfCRT-mediated [3H]CQ transport, trans-stimulation (% PfCRT3D7 control), [test solute]i = 5 mM (intracellular), PfCRT3D7 oocytes, normalised to oocyte type control): 147 ± 5.2%; activity at 45000 µM ([3]; […], read-out: PfCRT-mediated [3H]CQ transport, trans-stimulation (% PfCRT3D7 control), [test solute]i = 45 mM (intracellular; 30 mM for some solutes due to solubility), PfCRT3D7 oocytes, normalised to oocyte type control): 195 ± 4.6%; activity at 45000 µM ([3]; […], read-out: [3H]CQ transport, PfCRT3D7 (% PfCRTDd2 control), 45 mM VF-6 injected, 0 mM Na+ injection buffer, Experiment 1): 25.3%; activity at 45000 µM ([3]; […], read-out: [3H]CQ transport, PfCRT3D7 (% PfCRTDd2 control), 45 mM VF-6 injected, 0 mM Na+ injection buffer, Experiment 2): 26.4%; activity at 45000 µM ([3]; […], read-out: [3H]CQ transport, PfCRT3D7 (% PfCRTDd2 control), 45 mM VF-6 injected, 0 mM Na+ injection buffer, Experiment 3): 25.3%; activity at 45000 µM ([3]; […], read-out: [3H]CQ transport, PfCRT3D7 (% PfCRTDd2 control), 45 mM VF-6 injected, 0 mM Na+ injection buffer, Experiment 4): 26.8%; activity at 45000 µM ([3]; […], read-out: [3H]CQ transport, PfCRT3D7 (% PfCRTDd2 control), 45 mM VF-6 injected, 0 mM Na+ injection buffer, Experiment 5): 27.3%; activity at 2000 µM ([3]; […], Experiment 1): 22.9%; activity at 2000 µM ([3]; […], Experiment 2): 19.1%; activity at 2000 µM ([3]; […], Experiment 3): 21.1%; activity at 2000 µM ([3]; […], Experiment 4): 21.8%; [3H]CQ transport, PfCRT3D7 (% PfCRT3D7 control) ([3]; trans-stimulation, Experiment 1): 187.43 % PfCRT3D7 control; [3H]CQ transport, PfCRT3D7 (% PfCRT3D7 control) ([3]; trans-stimulation, Experiment 2): 206.32 % PfCRT3D7 control; [3H]CQ transport, PfCRT3D7 (% PfCRT3D7 control) ([3]; trans-stimulation, Experiment 3): 201.32 % PfCRT3D7 control; [3H]CQ transport, PfCRT3D7 (% PfCRT3D7 control) ([3]; trans-stimulation, Experiment 4): 199.25 % PfCRT3D7 control; [3H]CQ transport (% PfCRT3D7 control), trans-stimulation, PfCRT3D7 ([3]; trans-stimulation, [test solute]i = 5 mM (injected), PfCRT-mediated component (background subtracted), sheet title says normalised to PfCRTDd2 control, mean ± SEM, SEM): 1.7 ± 0.02 % PfCRT3D7 control; activity at 5000 µM ([4]; pH 5.5, read-out: PfCRT-mediated [3H]CQ transport, trans-stimulation (% PfCRTDd2 control), [test solute]i = 5 mM (intracellular), PfCRTDd2 oocytes, normalised to oocyte type control): 103 ± 3.1%; activity at 5000 µM ([4]; pH 5.5, read-out: [3H]CQ transport (% PfCRTDd2 control), trans-stimulation, PfCRTDd2, trans-stimulation, [test solute]i = 5 mM (injected), PfCRT-mediated component (background subtracted), mean ± SEM, SEM): 103 ± 3.1%; activity at 45000 µM ([4]; pH 5.5, read-out: [3H]CQ transport (% PfCRTDd2 control), trans-stimulation, PfCRTDd2, trans-stimulation, [test solute]i = 45 mM (30 mM for some solutes due to solubility), PfCRT-mediated component (background subtracted), mean ± SEM, SEM): 112 ± 2.1%; activity at 2000 µM ([4]; Experiment 1): 120%; activity at 2000 µM ([4]; Experiment 2): 119%; activity at 2000 µM ([4]; Experiment 3): 120%; activity at 2000 µM ([4]; Experiment 4): 112%; activity at 5000 µM ([5]; pH 5.5, read-out: PfCRT-mediated [3H]CQ transport, trans-stimulation (% PfCRTEcu1110 control), [test solute]i = 5 mM (intracellular), PfCRTEcu1110 oocytes, normalised to oocyte type control): 126 ± 2.4%; activity at 45000 µM ([5]; Experiment 1): 47.7%; activity at 45000 µM ([5]; Experiment 2): 47.6%; activity at 45000 µM ([5]; Experiment 3): 50.8%; activity at 45000 µM ([5]; Experiment 4): 49.2%; activity at 45000 µM ([5]; Experiment 5): 51.1%; activity at 2000 µM ([5]; Experiment 1): 44.2%; activity at 2000 µM ([5]; Experiment 2): 47.3%; activity at 2000 µM ([5]; Experiment 3): 38.4%; activity at 2000 µM ([5]; Experiment 4): 45.6%; [3H]CQ transport, PfNT1 (% PfCRTDd2 control) ([6]; 45 mM VF-6 injected, 0 mM Na+ injection buffer, Experiment 1): 3.36 % PfCRTDd2 control; [3H]CQ transport, PfNT1 (% PfCRTDd2 control) ([6]; 45 mM VF-6 injected, 0 mM Na+ injection buffer, Experiment 2): 3.47 % PfCRTDd2 control; [3H]CQ transport, PfNT1 (% PfCRTDd2 control) ([6]; 45 mM VF-6 injected, 0 mM Na+ injection buffer, Experiment 3): 3.88 % PfCRTDd2 control; [3H]CQ transport, PfNT1 (% PfCRTDd2 control) ([6]; 45 mM VF-6 injected, 0 mM Na+ injection buffer, Experiment 4): 3.57 % PfCRTDd2 control; [3H]CQ transport, PfNT1 (% PfCRTDd2 control) ([6]; 45 mM VF-6 injected, 0 mM Na+ injection buffer, Experiment 5): 3.69 % PfCRTDd2 control; [3H]CQ transport, PfNT1 (% PfCRTDd2 control) ([6]; 45 mM VF-6 injected, 96 mM Na+ injection buffer, Experiment 1): 3.72 % PfCRTDd2 control; [3H]CQ transport, PfNT1 (% PfCRTDd2 control) ([6]; 45 mM VF-6 injected, 96 mM Na+ injection buffer, Experiment 2): 3.21 % PfCRTDd2 control; [3H]CQ transport, PfNT1 (% PfCRTDd2 control) ([6]; 45 mM VF-6 injected, 96 mM Na+ injection buffer, Experiment 3): 3.67 % PfCRTDd2 control; [3H]CQ transport, PfNT1 (% PfCRTDd2 control) ([6]; 45 mM VF-6 injected, 96 mM Na+ injection buffer, Experiment 4): 3.45 % PfCRTDd2 control; [3H]CQ transport, PfNT1 (% PfCRTDd2 control) ([6]; 45 mM VF-6 injected, 96 mM Na+ injection buffer, Experiment 5): 3.27 % PfCRTDd2 control; activity at 2000 µM ([6]; Experiment 1): 2.65%; activity at 2000 µM ([6]; Experiment 2): 2.51%; activity at 2000 µM ([6]; Experiment 3): 2.61%; activity at 2000 µM ([6]; Experiment 4): 2.73%; [3H]CQ transport, PfNT1 (% PfCRTDd2 control) ([6]; trans-stimulation, solute 45 mM injected (estimated intracellular), Experiment 1): 2.65 % PfCRTDd2 control; [3H]CQ transport, PfNT1 (% PfCRTDd2 control) ([6]; trans-stimulation, solute 45 mM injected (estimated intracellular), Experiment 2): 2.51 % PfCRTDd2 control; [3H]CQ transport, PfNT1 (% PfCRTDd2 control) ([6]; trans-stimulation, solute 45 mM injected (estimated intracellular), Experiment 3): 2.61 % PfCRTDd2 control; [3H]CQ transport, PfNT1 (% PfCRTDd2 control) ([6]; trans-stimulation, solute 45 mM injected (estimated intracellular), Experiment 4): 2.73 % PfCRTDd2 control

Reference: PMC7413254 (Nature Communications, 2020)
